Experimental data published in ChEMBL document CHEMBL4052743, “Oxindole-based intraocular pressure reducing agents” (Bioorg Med Chem Lett, 2017).
Active and inactive are the calls of the source. The calls are words filed in the database; no cut-off is given here.

Columns and labels:
Oryctolagus cuniculus [1] = species: Oryctolagus cuniculus; assay: (§1) Reduction in intraocular pressure in Chinchilla rabbit assessed as maximal change in intraocular pressure at 0.1% after application of one drop (0.06 ml) of solution containing active compound/vehicle every hour (during 6 hours and after 24 hours) by automatic tonometry; assay type: functional
Oryctolagus cuniculus [2] = species: Oryctolagus cuniculus; assay: as §1, with “maximum effective time required for reduction of intraaocular” for “maximal change in intraocular”; assay type: functional
[3] = Toxicity in rat; conditions: in vivo
Oryctolagus cuniculus [4] = species: Oryctolagus cuniculus; assay: as §1, with “maximum effective time required for reduction of intraaocular” for “maximal change in intraocular”, “hours) and measured after 24 hrs post dose” for “hours)”; assay type: functional
Oryctolagus cuniculus [5] = species: Oryctolagus cuniculus; assay: (§2) Reduction in intraocular pressure in Chinchilla rabbit assessed as maximal change in intraocular pressure at 0.1% after application of one drop (0.06 ml) of solution containing active compound/vehicle every hour (during 6 hours and after 24 hours) by applanation tonometry; assay type: functional; parameters: scale not given: the % may be the effect or the level left
Oryctolagus cuniculus [6] = species: Oryctolagus cuniculus; assay: as §2, with “maximum effective time required for reduction of intraaocular” for “maximal change in intraocular”; assay type: functional
Oryctolagus cuniculus [7] = species: Oryctolagus cuniculus; assay: Reduction in intraocular pressure in Chinchilla rabbit assessed as maximal change in intraocular pressure at 1% after application of one drop (0.06 ml) of solution containing active compound/vehicle every hour (during 6 hours and after 24 hours) by applanation tonometry; assay type: functional
[8] = target: T1, Ribosyldihydronicotinamide dehydrogenase [quinone] (Homo sapiens, UniProt P16083); assay: Inhibition of QR2 (unknown origin) using MTT and NMeH as substrates
T1 sequence (P16083 whole entry): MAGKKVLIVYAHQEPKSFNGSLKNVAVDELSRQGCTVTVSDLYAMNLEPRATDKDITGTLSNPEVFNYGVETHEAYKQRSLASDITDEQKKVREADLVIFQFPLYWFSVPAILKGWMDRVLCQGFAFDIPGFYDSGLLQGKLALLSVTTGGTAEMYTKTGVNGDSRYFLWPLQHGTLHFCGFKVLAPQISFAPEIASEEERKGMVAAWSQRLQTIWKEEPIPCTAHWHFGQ

[9] = target: T2, Ribosyldihydronicotinamide dehydrogenase [quinone] (Homo sapiens) (UniProt P16083); assay: Inhibition of QR2 (unknown origin) using MTT and NMeH as substrates relative to control
T2 sequence (whole entry): T1 sequence (P16083 whole entry)

[10] = Inhibition of MT-3 (unknown origin); parameters: species or system Homo sapiens
[11] = Binding affinity to MT-3 (unknown origin); parameters: species or system Homo sapiens
Oryctolagus cuniculus [12] = assay: Reduction in intraocular pressure in New Zealand white rabbit at 100 mg/10 ml dosed via topical route measured after 0.5 to 6 hrs post dose by tonometry; assay type: functional; parameters: scale not given: the % may be the effect or the level left
Oryctolagus cuniculus [13] = species: Oryctolagus cuniculus; assay: Reduction in intraocular pressure in Chinchilla rabbit assessed as maximal change in intraocular pressure at 0.5% after application of one drop (0.06 ml) of solution containing active compound/vehicle every hour (during 6 hours and after 24 hours) by applanation tonometry; assay type: functional
Oryctolagus cuniculus [14] = species: Oryctolagus cuniculus; assay: as §1, with “maximum effective time required for reduction of intraaocular” for “maximal change in intraocular”, “hours) and measured after 6 hrs post dose” for “hours)”; assay type: functional
[15] = Solubility in water; assay type: physicochemical; conditions: buffer

| SMILES | Activity (Oryctolagus cuniculus [1]) | Time (Oryctolagus cuniculus [2]) | LD50 [3] | Activity (Oryctolagus cuniculus [4]) | further results |
| --- | --- | --- | --- | --- | --- |
| CC(=O)Nc1ccc2c(c1)C(O)(CC#N)C(=O)N2 (stereo not drawn) | inactive | inactive | > 2400 mg/kg | inactive | – |
| COc1ccc2c(c1)C(CC#N)C(=O)N2 (stereo not drawn) | inactive | inactive | > 2400 mg/kg | inactive | – |
| CC(=O)Nc1ccc2c(c1)C(CC#N)C(=O)N2 (stereo not drawn) | 22% | 4 h | > 2400 mg/kg | inactive | – |
| COc1ccc2[nH]cc(CCNC(C)=O)c2c1 [MELATONIN] | 26 - 31% | 3 h | – | inactive | Activity (Oryctolagus cuniculus [5]): 12%; Time (Oryctolagus cuniculus [6]): 4 h; Activity (Oryctolagus cuniculus [7]): inactive |
| COc1ccc2[nH]c(Cl)c(CCNC(C)=O)c2c1 | inactive | inactive | > 2400 mg/kg | inactive | IC50 [8]: 13 µM; Imax [9]: 91% |
| CC(=O)NCCc1cn(C)c2c(C)c(C)ccc12 | inactive | inactive | > 2400 mg/kg | inactive | IC50 [8]: 4.5 µM; Imax [9]: 97.4% |
| COc1cc(NC(C)=O)c2c(c1)C(CC#N)(OC(C)=O)C(=O)N2 (stereo not drawn) | 18% | 2 h | > 2400 mg/kg | inactive | – |
| CC(=O)Nc1ccc2c(c1)C(O)(CC(=O)O)C(=O)N2 (stereo not drawn) | 18% | 2 h | > 2400 mg/kg | inactive | – |
| N#CCC1C(=O)Nc2ccc(Br)cc21 (stereo not drawn) | inactive | inactive | > 2400 mg/kg | inactive | – |
| COC(=O)Nc1ccc2[nH]cc(CCNC(C)=O)c2c1 | – | – | – | – | IC50 [10]: 0.058 µM; Ki [11]: 0.065 µM; Activity (Oryctolagus cuniculus [12]): 45% |
| CC(=O)Nc1cc(NC(C)=O)c2c(c1)C(CC#N)(OC(C)=O)C(=O)N2 (stereo not drawn) | 21% | 2 h | > 2400 mg/kg | inactive | Activity (Oryctolagus cuniculus [13]): Active; Activity (Oryctolagus cuniculus [7]): inactive |
| COc1ccc2c(c1)C1(C(=O)N2)C2CCC(C2)C1CNC(C)=O (stereo not drawn) | inactive | inactive | > 2400 mg/kg | inactive | IC50 [8]: 63 µM; Imax [9]: 59.6% |
| CCC(=O)Nc1cc(NC(=O)CC)c2c(c1)C(CC#N)(OC(=O)CC)C(=O)N2 (stereo not drawn) | 15% | 2 h | > 2400 mg/kg | inactive | – |
| COc1ccc2c(c1)C1(CC1CNC(C)=O)C(=O)N2C (stereo not drawn) | 10% | 2 h | > 2400 mg/kg | inactive | IC50 [8]: 5.1 µM; Imax [9]: 93.9% |
| CCOC(=O)C(C(=O)O)C1C(=O)Nc2ccc(OC)cc21 (stereo not drawn) | 18% | 4 h | > 2400 mg/kg | inactive | – |
| CC(=O)NCCC1(O)C(=O)Nc2ccc(NC(C)=O)cc21 (stereo not drawn) | inactive | inactive | > 2400 mg/kg | inactive | – |
| CC(=O)NCCC1C(=O)Nc2ccc(NC(C)=O)cc21 (stereo not drawn) | inactive | inactive | > 2400 mg/kg | inactive | – |
| CC(=O)Nc1ccc2c(c1)C(CC(=O)O)C(=O)N2 (stereo not drawn) | 41% | 4 h | > 2400 mg/kg | – | Activity (Oryctolagus cuniculus [14]): Active; solubility [15]: Soluble |
| CCC(=O)Nc1cc(NC(=O)CC)c2c(c1)C(O)(CC#N)C(=O)N2 (stereo not drawn) | 29% | 4 h | > 2400 mg/kg | inactive | – |
| CC(=O)NCCC1C(=O)Nc2ccc(Br)cc21 (stereo not drawn) | inactive | inactive | > 2400 mg/kg | inactive | IC50 [8]: 19 µM; Imax [9]: 29.9% |
| CC(=O)Nc1cccc2c1NC(=O)C2CC#N (stereo not drawn) | inactive | inactive | > 2400 mg/kg | inactive | – |
| CC(C)(C)NC[C@H](O)COc1nsnc1N1CCOCC1 [TIMOLOL] | 32% | 4 h | – | inactive | Activity (Oryctolagus cuniculus [5]): 11%; Time (Oryctolagus cuniculus [6]): 3 h |
| COc1ccc2c(c1)c(CCNC(C)=O)cn2C | 8% | 2 h | > 2400 mg/kg | inactive | IC50 [8]: 5.7 µM; Imax [9]: 102% |
| CC(=O)Nc1ccc2c(c1)C(CC#N)C(=O)N2C (stereo not drawn) | inactive | inactive | > 2400 mg/kg | inactive | – |
